Assay results as given in patent US20090208620A1, “Alimentary Compositions and Methods For Metabolic Modulation” (VDF FUTURECEUTICALS, INC., priority 2003, published 2009).
“And” between values parts separate entries of the source, which are not always exact repeats. Equal values may be shown once.

Columns and labels:
[1] = test system: activated AMPK; assay: Western immunoblot for activated (phospho-Thr172) AMPK in muscle cells; type: cell-based, mouse; details: for FOLD AMPK ACTIVATION (OVER CONTROL): cells treated 30 minutes at 37° C
Experimental: (§1) The levels of Glut-4, activated AMPK and activated Akt were measured in mouse muscle cells C2C12 (from ATTC) and in primary culture of human skeletal muscle cells (Clonetics, Inc.) using Western immunoblotting. C2C12 cells were plated at 1.5×1-exp5 cells per mL/well (12-well plate) in standard cell culture medium (DMEM supplemented with 10% fetal bovine serum (FBS), 25 mM glucose, 20 mM Hepes, 4 mM glutamine and 2 mM sodium pyruvate. 48 hrs after the plating, medium was changed to differentiation medium (DMEM supplemented with 5 mM of glucose and 0.5% of FBS) for next 3-4 days to stimulate the formation of myotubes. Three hours before the treatment with selected agents, cells were washed with PBS and transferred to PBS supplemented with 5 mM of glucose.
(§2) Human skeletal muscle cells (HSKM) were cultured in SKBM-2 mediums provided by Clonetics. 48 hrs after cell plating, medium was changed to SKBM medium to stimulate differentiation of the cells to myotubes. When differentiated, the myotubes were transferred to PBS supplemented with 5 mM glucose for three hrs before the treatment.
(§3) Analysis of C2C12 cells for the level of activated AMPK, Akt and the level of GLUT-4 was performed in the same experimental system. The cells were treated for 30 minutes at 37° C. […] Subsequently, 20 μg per sample of sample protein was used for Western analysis using NuPage 10% Bis/Tris gels (Invitrogen). After exposure of membranes to primary and secondary antibodies AMPK, AKT or Glut-4 was detected using ECL-Plus (Amersham) following producer's instruction. Chemilumiscent signals were detected by using ChemiDoc system from Biorad. Intensity of detected signals were analyzed and measured using Quantity One software (Biorad). Alternatively, the level of phosphorylated AMPK was detected using ECL kit from Amersham and short exposure to Kodak films.
(§4) Experimental setup: Cell Culture was followed by treatment with selected contemplated compounds, which was followed by cell lysis and western blot analysis for AMPK, Akt, GLUT4, total AMPK, and total Akt. Signals were acquired accordingly.

[2] = test system: activated Akt; assay: Western immunoblot for activated (phospho-Ser473) Akt in muscle cells; type: cell-based, mouse; details: for FOLD AKT ACTIVATION (OVER CONTROL): cells treated 30 minutes at 37° C
Experimental: as §1, §2, §3, §4

[3] = test system: GLUT-4; assay: Western immunoblot for GLUT-4 protein level in C2C12 cells; type: cell-based, mouse
Experimental: as §1
Analysis of C2C12 cells for the level of activated AMPK, Akt and the level of GLUT-4 was performed in the same experimental system. The cells were treated for 30 minutes at 37° C. After the treatment, the cells were washed with ice-cold PBS and lysed with 80 μl of lysis buffer/well (M-PER buffer from Pierce supplemented with protease and phosphatase inhibitor mix (Calbiochem) for 10 minutes on ice. Next, the plates were transferred to −20° C. to improve the lysis of the cells. Next cells were sonicated for 5 minutes and lysate was transferred to Eppendorf tubes and centrifuged at 14,000 rpm for 10 minutes. Supernatants were collected in fresh Eppendorf tubes and kept on ice to measure the amount of total proteins. 3 μl of each lysate was used to measure the protein concentration using standard Bradford method (Biorad). Subsequently, 20 μg per sample of sample protein was used for Western analysis using NuPage 10% Bis/Tris gels (Invitrogen). After exposure of membranes to primary and secondary antibodies AMPK, AKT or Glut-4 was detected using ECL-Plus (Amersham) following producer's instruction. Chemilumiscent signals were detected by using ChemiDoc system from Biorad. Intensity of detected signals were analyzed and measured using Quantity One software (Biorad). Alternatively, the level of phosphorylated AMPK was detected using ECL kit from Amersham and short exposure to Kodak films.
Experimental setup: Cell Culture was followed by treatment with selected contemplated compounds, which was followed by cell lysis and western blot analysis for AMPK, Akt, GLUT4, total AMPK, and total Akt. Signals were acquired accordingly. Primary antibodies used in these studies are the following: Anti-phospho-AMPK (Thr172), mouse, rabbit IgG, from Cell Signaling, #2531; Anti-phospho-Akt (Ser473), mouse, rabbit IgG, Cell Signaling, #9271; Anti-Glut-4, mouse, rabbit IgG, Calbiochem, #400064; Anti-AMPK (total), mouse, rabbit IgG, Cell Signaling, #2532; Anti-Akt (total), mouse, rabbit IgG, Cell Signaling, #9272.
The effects of kinetin, N^2-Acetyl-Guanosine and N^2-Acetyl-Guanine on GLUT-4 protein level in C2C12 cells were investigated following the same experimental design as described for AMPK and AKT. Anti-Glut-4 antibody used in this study was from Calbiochem. […] Table 3 refers to multiple independent experiments where multiple identical concentrations for the same reagents are indicated.

[4] = test system: muscle cells; assay: Total glucose uptake in vitro with fluorescent glucose analog; type: cell-based; details: for AVERAGE (N = 3) fluorescence of fluorescent glucose in the cells / FOLD CHANGE IN TOTAL GLUCOSE UPTAKE (OVER CONTROL): 30 minutes at 37 C
Experimental: Total glucose uptake was measured using fluorescent glucose analog from Molecular Probes. Briefly, muscle cells were treated with kinetin, N^2-Acetyl-Guanosine and N^2-Acetyl-Guanine for 30 minutes at 37 C first and subsequently, these cells were exposed to 500 μM of fluorescent glucose analog for 5 minutes at room temperature. Next, cells were washed twice with cold Krebs-Hepes buffered solution and fixed in 70% ethanol in water. Fluorescence of fluorescent glucose in the cells was measured using fluorescent plate reader at 480/530 nm (excitation/emission). […] Table 4 refers to multiple independent experiments where multiple identical concentrations for the same reagents are indicated.

[5] = test system: rat epitrochlearis muscle; assay: Glucose uptake in rat epitrochlearis muscle; type: cell-based; design: unit not given here; details: 60 minute incubation at 37 C, 10 minute transport at 30 C; for Glucose uptake, Raw: single values, listed as K
Experimental: Glucose uptake in rat epitrochlearis muscle was determined following a protocol substantially as described by Brozinick, J. T., and Birnbaum, M. J. (1998) J. Biol. Chem. 273(24), […]. Results are listed in Tables 5 and 6, wherein data of Table 5 were obtained for 60 minute incubations (at 37 C), 10 minute transport at (30 C) and data of Table 6 were obtained for 60 minute incubations (at 37 C), 10 minute transport at (30 C) of the compounds as indicated (K is kinetin, AG is N2-acetylguanine).

[6] = concentration 0.15 (unit not given)
[7] = concentration 0.3 (unit not given)
[8] = concentration 1.5 (unit not given)
[9] = concentration 3.75 (unit not given)
[10] = concentration 7.5 (unit not given)
[11] = concentration 0.75 (unit not given)

CC(=O)Nc1nc2nc[nH]c2c(=O)[nH]1 [N^2-Acetyl-Guanine, N2-acetylguanine]
FOLD AMPK ACTIVATION (OVER CONTROL) ([1]; 0.3 microM): 5.42 fold
FOLD AMPK ACTIVATION (OVER CONTROL) ([1]; 1.5 microM): 5.85 fold
FOLD AMPK ACTIVATION (OVER CONTROL) ([1]; 7.5 microM): 6.00 fold
FOLD AMPK ACTIVATION (OVER CONTROL) ([1]; 37.5 microM): 6.51 fold
effect on AMPK activity (in words) ([1]; no concentration stated): potent activators of AMPK
FOLD AKT ACTIVATION (OVER CONTROL) ([2]; 0.3 microM): 3.50 fold and 2.44 fold
FOLD AKT ACTIVATION (OVER CONTROL) ([2]; 7.5 microM): 2.58 fold and 1.95 fold
effect on Akt activity (in words) ([2]; no concentration stated): potent activators of AMPK as well as Akt
effect on GLUT-4 protein level (in words) [3]: potently increase GLUT-4 protein level
FOLD CHANGE IN GLUT-4 LEVEL (OVER CONTROL) ([3]; 0.3 microM): 3.94 fold
FOLD CHANGE IN GLUT-4 LEVEL (OVER CONTROL) ([3]; 1.5 microM): 3.84 fold
FOLD CHANGE IN GLUT-4 LEVEL (OVER CONTROL) ([3]; 7.5 microM): 3.24 fold
FOLD CHANGE IN GLUT-4 LEVEL (OVER CONTROL) ([3]; 37.5 microM): 2.80 fold
effect on glucose uptake in muscle cells in vitro (in words) [4]: potently enhance glucose uptake in muscle cells in vitro
AVERAGE (N = 3) fluorescence of fluorescent glucose in the cells [4, 6]: 86.4 +/− 2.3
FOLD CHANGE IN TOTAL GLUCOSE UPTAKE (OVER CONTROL) [4, 6]: 1.85 fold
AVERAGE (N = 3) fluorescence of fluorescent glucose in the cells [4, 7]: 54.5 +/− 1.7
FOLD CHANGE IN TOTAL GLUCOSE UPTAKE (OVER CONTROL) [4, 7]: 2.68 fold
AVERAGE (N = 3) fluorescence of fluorescent glucose in the cells [4, 8]: 55.2 +/− 0.8
FOLD CHANGE IN TOTAL GLUCOSE UPTAKE (OVER CONTROL) [4, 8]: 2.71 fold
AVERAGE (N = 3) fluorescence of fluorescent glucose in the cells [4, 9]: 115.9 +/− 3.7
FOLD CHANGE IN TOTAL GLUCOSE UPTAKE (OVER CONTROL) [4, 9]: 2.48 fold
AVERAGE (N = 3) fluorescence of fluorescent glucose in the cells [4, 10]: 59.6 +/− 0.4
FOLD CHANGE IN TOTAL GLUCOSE UPTAKE (OVER CONTROL) [4, 10]: 2.93 fold
Glucose uptake, Mean ([5]; 0.1 uM): 1.12
Glucose uptake, Mean ([5]; 0.4 uM): 1.43

c1coc(CNc2ncnc3[nH]cnc23)c1 [Kinetin, kinetin]
FOLD AMPK ACTIVATION (OVER CONTROL) ([1]; 0.1 microM): 5.30 fold
FOLD AMPK ACTIVATION (OVER CONTROL) ([1]; 0.3 microM): 8.12 fold
FOLD AMPK ACTIVATION (OVER CONTROL) ([1]; 0.8 microM): 3.60 fold and 2.40 fold
FOLD AMPK ACTIVATION (OVER CONTROL) ([1]; 1.0 microM): 19.50 fold
FOLD AMPK ACTIVATION (OVER CONTROL) ([1]; 2.0 microM): 2.70 fold
FOLD AMPK ACTIVATION (OVER CONTROL) ([1]; 3.0 microM): 14.50 fold
FOLD AMPK ACTIVATION (OVER CONTROL) ([1]; 10.0 microM): 12.80 fold
FOLD AKT ACTIVATION (OVER CONTROL) ([2]; 0.3 microM): 5.08 fold
FOLD AKT ACTIVATION (OVER CONTROL) ([2]; 0.8 microM): 3.17 fold
FOLD AKT ACTIVATION (OVER CONTROL) ([2]; 0.9 microM): 3.81 fold
FOLD AKT ACTIVATION (OVER CONTROL) ([2]; 2.0 microM): 3.35 fold
FOLD AKT ACTIVATION (OVER CONTROL) ([2]; 2.7 microM): 3.21 fold
FOLD AKT ACTIVATION (OVER CONTROL) ([2]; 5.0 microM): 2.07 fold
FOLD AKT ACTIVATION (OVER CONTROL) ([2]; 8.1 microM): 0.24 fold
effect on GLUT-4 protein level (in words) [3]: potently increase GLUT-4 protein level
FOLD CHANGE IN GLUT-4 LEVEL (OVER CONTROL) ([3]; 0.3 microM): 3.45 fold and 3.95 fold
FOLD CHANGE IN GLUT-4 LEVEL (OVER CONTROL) ([3]; 0.8 microM): 3.46 fold and 2.36 fold
FOLD CHANGE IN GLUT-4 LEVEL (OVER CONTROL) ([3]; 0.9 microM): 4.00 fold
FOLD CHANGE IN GLUT-4 LEVEL (OVER CONTROL) ([3]; 2.0 microM): 1.88 fold
FOLD CHANGE IN GLUT-4 LEVEL (OVER CONTROL) ([3]; 2.7 microM): 3.88 fold
FOLD CHANGE IN GLUT-4 LEVEL (OVER CONTROL) ([3]; 8.1 microM): 1.11 fold
effect on glucose uptake in muscle cells in vitro (in words) [4]: potently enhance glucose uptake in muscle cells in vitro
AVERAGE (N = 3) fluorescence of fluorescent glucose in the cells [4, 6]: 88.6 +/− 0.9
FOLD CHANGE IN TOTAL GLUCOSE UPTAKE (OVER CONTROL) [4, 6]: 1.88 fold
AVERAGE (N = 3) fluorescence of fluorescent glucose in the cells [4, 7]: 86.0 +/− 0.7
FOLD CHANGE IN TOTAL GLUCOSE UPTAKE (OVER CONTROL) [4, 7]: 2.97 fold
AVERAGE (N = 3) fluorescence of fluorescent glucose in the cells [4, 11]: 103.3 +/− 2.1
FOLD CHANGE IN TOTAL GLUCOSE UPTAKE (OVER CONTROL) [4, 11]: 2.19 fold
AVERAGE (N = 3) fluorescence of fluorescent glucose in the cells [4, 8]: 110.6 +/− 2.3
FOLD CHANGE IN TOTAL GLUCOSE UPTAKE (OVER CONTROL) [4, 8]: 3.82 fold
AVERAGE (N = 3) fluorescence of fluorescent glucose in the cells [4, 9]: 102.6 +/− 4.7
FOLD CHANGE IN TOTAL GLUCOSE UPTAKE (OVER CONTROL) [4, 9]: 2.18 fold
AVERAGE (N = 3) fluorescence of fluorescent glucose in the cells [4, 10]: 56.6 +/− 1.4
FOLD CHANGE IN TOTAL GLUCOSE UPTAKE (OVER CONTROL) [4, 10]: 1.95 fold
Glucose uptake, Mean ([5]; 0.5 uM): 0.99
Glucose uptake, Mean ([5]; 1 uM (Table 6)): 1.23
Glucose uptake, Raw ([5]; 1 uM (Table 6)): 1.54 and 0.95 and 1.33 and 1.10 and 1.23
Glucose uptake, Mean ([5]; 2 uM): 0.70
Glucose uptake, Raw ([5]; 2 uM): 0.57 and 0.90 and 0.64 and 0.81
